# Results as given in US6858589B2, “Methods of and compositions for potentiating the action of agents active on cell wall sites of the susceptible bacteria” (priority 1996, dated 2005).
# System: blood culture isolate of cMRSA
# Experiment: Kill kinetics and regrowth patterns of cMRSA exposed to gentamicin profiles and constant beta-lactam
# Format: cell-based, Staphylococcus aureus
# Experimental: FIGS. 5a and 5b Kill kinetics and regrowth patterns of a clinical isolate of cMRSA.
# The CMRSA isolate was cultured in the presence of gentamicin (Delta West, Bentleigh, Australia). An overnight culture of cMRSA in brain heart infusion broth (BHIB) (Oxoid, Bainstoke, England) was diluted to 10^7 CFU/ml in 0.1% peptone water (Oxoid, Bainstoke, England). A 1 ml sample of the 10^7 CFU/ml culture was added to the experimental culture broth, resulting in an initial density of 10^6 CFU/ml. In vitro concentration-time modeling of clinical plasma gentamicin concentration-time profiles assumed linear extrapolation of in vivo data as reported previously.^18 (Bastone et al Antimicrobial Agents and Chemotherapy 37(4): 914-917, 1993). […] Other profiles were constructed by linear extrapolation of these profiles and included 7 and 16 mg/l bolus and infusion profiles. Colony counts were performed at times 0, 0.5, 2.5, 4.5, 6.5, 8.5, 10.5, 24.5 and 48.5 hours for bolus profiles and times 0, 1, 3, 5, 7, 9, 11, 25 and 49 hours for infusion profiles.
# In the experiments involving cephazolin the concentration was maintained at 4 mg/l in the BHIB for the entire 48.5 hours. For the experiments involving flucloxacillin the concentration of flucloxacillin was maintained at 2 mg/l for 48.5 hours. Colony counts were performed at times 0, 0,5, 2.5, 4.5, 6.5, 8.5, 10.5, 24.5 and 48.5 hours. […] These included cMRSA in a drug free broth, cMRSA exposed to a bolus profile of gentamicin with a target Cpeak 30 of 6 mg/l only, cMRSA exposed to […] of flucloxacillin only.
# All experiments involved six replicates. Gentamicin concentrations were measured at times 0, 0.16, 0.33, 0.5, 2.5, 4.5, 6.5, 8.5, 10.5, 24.5 and 48.5 hours. Gentamicin assay concentrations were determined by fluorescence polarisation immunoassay (AxSYM, Abbot, Ill., U.S.A.) which has a threshold for detection of 0.3 mg/liter. […] (Gibaldi et al, pharmaceutics 2nd edn, 1982).
# The blood culture cMRSA isolate was exposed to gentamicin in vitro simulating an in vivo bolus dosing regimen with varying 30 minute post dose concentrations of gentamicin. The same organism was then exposed to gentamicin in vitro simulating an in vivo bolus dosing regime with a 30 minute post dose concentration of 6 mg/l and constant concentration of 4 mg/l of cephazolin or 2 mg/l of flucloxacillin for 48 hours.
substance,measurement,setting,value
gentamicin,Outcome of exposure,each agent alone,complete kill or eradication was not achieved
same,Time at which regrowth phase began,"gentamicin bolus and infusion profiles, target Cpeak30 7 mg/l",24.5 h
same,Regrowth,"gentamicin bolus and infusion profiles, target Cpeak30 16 mg/l",no regrowth
same,Time at which early bactericidal effect was evident,"gentamicin only, bolus profile Cpeak30 6 mg/l",≤ 0.5 h
